Values after ≈ are worked out from the molar mass of the structure shown. Each block holds one molecule with its values, some of them ahead of it.
How the values were obtained:
hERG (KCNH2) = hERG (KCNH2) (Homo sapiens, UniProt Q12809); assay: Displacement of [3H]dofetilide from human ERG expressed in HEK293 cells at 10 uM
Dipeptidyl peptidase 8 = Dipeptidyl peptidase 8 (Homo sapiens, UniProt Q6V1X1); assay: Inhibition of human recombinant DPP8
Dipeptidyl peptidase 2 = Dipeptidyl peptidase 2 (Homo sapiens, UniProt Q9UHL4); assay: Inhibition of human recombinant DPP2
[1] = biological target: Voltage-gated inwardly rectifying potassium channel KCNH2 (Homo sapiens, UniProt Q12809); assay: Inhibition of human ERG by patch-clamp technique
[2] = Clearance in Sprague-Dawley rat plasma at 1 mg/kg, iv and 5 mg/kg, po
[3] = Volume of distribution at steady state in Sprague-Dawley rat at 1 mg/kg, iv and 5 mg/kg, po; settings: in vivo
[4] = Half life in Sprague-Dawley rat at 1 mg/kg, iv and 5 mg/kg, po; settings: in vivo
[5] = Bioavailability in Sprague-Dawley rat at 1 mg/kg, iv and 5 mg/kg, po; settings: in vivo
in vivo [6] = settings: Sprague-Dawley, rat, plasma, po, 5 mg/kg
Description: AUC in Sprague-Dawley rat at 5 mg/kg, po

in vivo [7] = settings: Sprague-Dawley, rat, po, 5 mg/kg
Description: Cmax in Sprague-Dawley rat at 5 mg/kg, po

[8] = Apparent permeability from basolateral to apical side in MDCK cells; settings: dog
[9] = Apparent permeability from apical to basolateral side in MDCK cells; settings: dog
[10] = Fraction unbound in monkey; format: ADME, Macaca mulatta; settings: rhesus monkey
[11] = Fraction unbound in human; format: ADME
[12] = Tmax in human at 0.3 to 300 mg; format: ADME, organism-based; settings: in vivo
[13] = Terminal half life in human at 0.3 to 300 mg; format: ADME, organism-based; settings: in vivo, read-out: beta t1/2 (converted)
[14] = Cmax in cynomolgus monkey at 1 mg/kg, po; format: ADME, organism-based, Macaca fascicularis; parameters: dose 1 mg/kg, route oral; settings: in vivo
[15] = Clearance in dog plasma at 1 mg/kg, iv and 1 mg/kg, po; format: ADME, organism-based, Canis lupus familiaris
[16] = Volume of distribution at steady state in dog at 1 mg/kg, iv and 1 mg/kg, po; format: ADME, organism-based, Canis lupus familiaris; settings: in vivo, read-out: Vdss
[17] = Half life in dog at 1 mg/kg, iv and 1 mg/kg, po; format: ADME, organism-based, Canis lupus familiaris; settings: in vivo
[18] = Bioavailability in dog at 1 mg/kg, iv and 1 mg/kg, po; format: ADME, organism-based, Canis lupus familiaris; settings: in vivo
[19] = AUC in dog at 1 mg/kg, po; format: ADME, organism-based, Canis lupus familiaris; parameters: dose 1 mg/kg, route oral; settings: plasma
[20] = Cmax in dog at 1 mg/kg, po; format: ADME, organism-based, Canis lupus familiaris; parameters: dose 1 mg/kg, route oral; settings: in vivo
Dipeptidyl peptidase 3 = biological target: T1, Dipeptidyl peptidase 3 (Homo sapiens, UniProt Q9NY33); assay: Inhibition of DPP3 in human erythrocytes; format: cell-based
T1 sequence (Q9NY33 whole entry): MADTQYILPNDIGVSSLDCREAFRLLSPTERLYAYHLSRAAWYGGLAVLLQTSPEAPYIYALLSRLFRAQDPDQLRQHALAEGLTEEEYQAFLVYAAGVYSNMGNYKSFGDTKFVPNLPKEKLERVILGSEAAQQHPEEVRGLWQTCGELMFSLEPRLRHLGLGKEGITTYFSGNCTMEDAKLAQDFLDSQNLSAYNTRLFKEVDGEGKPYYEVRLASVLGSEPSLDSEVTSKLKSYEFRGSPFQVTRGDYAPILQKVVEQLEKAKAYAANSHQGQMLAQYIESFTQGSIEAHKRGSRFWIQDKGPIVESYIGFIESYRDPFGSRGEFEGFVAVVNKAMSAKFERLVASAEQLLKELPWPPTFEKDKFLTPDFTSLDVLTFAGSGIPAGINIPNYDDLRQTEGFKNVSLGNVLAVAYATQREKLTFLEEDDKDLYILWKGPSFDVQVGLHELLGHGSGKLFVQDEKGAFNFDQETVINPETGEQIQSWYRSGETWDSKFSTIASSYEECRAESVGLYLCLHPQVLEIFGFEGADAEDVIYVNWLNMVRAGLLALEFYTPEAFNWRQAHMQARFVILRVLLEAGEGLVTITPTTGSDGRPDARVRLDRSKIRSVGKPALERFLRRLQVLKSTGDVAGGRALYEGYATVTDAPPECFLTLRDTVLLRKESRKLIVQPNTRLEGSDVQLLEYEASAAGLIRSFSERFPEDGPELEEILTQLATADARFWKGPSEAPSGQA

Prolyl endopeptidase = biological target: T2, Prolyl endopeptidase (Homo sapiens, UniProt P48147); assay: Inhibition of POP
T2 sequence (P48147 whole entry): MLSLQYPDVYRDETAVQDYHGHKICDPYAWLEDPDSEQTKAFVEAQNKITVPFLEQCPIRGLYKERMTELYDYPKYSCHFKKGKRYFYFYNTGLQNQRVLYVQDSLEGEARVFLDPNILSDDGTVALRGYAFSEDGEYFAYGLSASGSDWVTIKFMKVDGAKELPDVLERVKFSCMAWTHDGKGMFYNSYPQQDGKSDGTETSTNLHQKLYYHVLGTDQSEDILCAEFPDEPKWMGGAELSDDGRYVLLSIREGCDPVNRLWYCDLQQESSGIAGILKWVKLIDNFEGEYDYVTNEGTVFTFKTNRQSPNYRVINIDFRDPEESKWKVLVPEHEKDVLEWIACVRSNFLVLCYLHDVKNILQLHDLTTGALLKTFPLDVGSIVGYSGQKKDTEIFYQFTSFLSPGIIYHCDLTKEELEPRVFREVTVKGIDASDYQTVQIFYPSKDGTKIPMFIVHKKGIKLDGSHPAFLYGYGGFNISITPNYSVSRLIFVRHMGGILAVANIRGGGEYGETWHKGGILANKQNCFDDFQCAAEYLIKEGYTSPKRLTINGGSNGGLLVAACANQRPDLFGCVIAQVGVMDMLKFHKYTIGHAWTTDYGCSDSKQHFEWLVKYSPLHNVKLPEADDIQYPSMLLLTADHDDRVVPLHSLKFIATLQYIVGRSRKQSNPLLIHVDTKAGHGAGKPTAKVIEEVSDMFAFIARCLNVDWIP

Cytochrome P450 1A2 = biological target: T3, Cytochrome P450 1A2 (Homo sapiens, UniProt P05177); assay: Inhibition of CYP1A2; format: ADME
T3 sequence (P05177 whole entry): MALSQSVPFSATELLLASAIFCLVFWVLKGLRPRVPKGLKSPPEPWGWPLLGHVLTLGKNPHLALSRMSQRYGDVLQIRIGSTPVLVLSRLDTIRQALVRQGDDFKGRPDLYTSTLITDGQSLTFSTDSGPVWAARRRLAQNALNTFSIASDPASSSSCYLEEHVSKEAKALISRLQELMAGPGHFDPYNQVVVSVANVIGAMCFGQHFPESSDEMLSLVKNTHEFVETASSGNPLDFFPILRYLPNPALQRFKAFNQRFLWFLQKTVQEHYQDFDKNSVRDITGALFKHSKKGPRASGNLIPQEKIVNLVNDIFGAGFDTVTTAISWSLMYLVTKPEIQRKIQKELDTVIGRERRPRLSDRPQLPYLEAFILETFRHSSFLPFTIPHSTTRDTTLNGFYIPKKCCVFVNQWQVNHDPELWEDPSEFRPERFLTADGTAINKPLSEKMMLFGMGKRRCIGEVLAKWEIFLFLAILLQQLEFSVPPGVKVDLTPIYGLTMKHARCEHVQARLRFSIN

[21] = Clearance in cynomolgus monkey plasma at 1 mg/kg, iv and 1 mg/kg, po; format: ADME, organism-based, Macaca fascicularis
[22] = Volume of distribution at steady state in cynomolgus monkey at 1 mg/kg, iv and 1 mg/kg, po; format: ADME, organism-based, Macaca fascicularis; settings: in vivo, read-out: Vdss
[23] = Half life in cynomolgus monkey at 1 mg/kg, iv and 1 mg/kg, po; format: ADME, organism-based, Macaca fascicularis; settings: in vivo
[24] = Bioavailability in cynomolgus monkey at 1 mg/kg, iv and 1 mg/kg, po; format: ADME, organism-based, Macaca fascicularis; settings: in vivo
Cytochrome P450 2C9 = Cytochrome P450 2C9 (Homo sapiens, UniProt P11712); assay: Inhibition of CYP2C9; format: ADME
Cytochrome P450 2C19 = Cytochrome P450 2C19 (Homo sapiens, UniProt P33261); assay: Inhibition of CYP2C19; format: ADME
Cytochrome P450 2D6 = Cytochrome P450 2D6 (Homo sapiens, UniProt P10635); assay: Inhibition of CYP2D6; format: ADME
Cytochrome P450 3A4 = Cytochrome P450 3A4 (Homo sapiens, UniProt P08684); assay: Inhibition of CYP3A4; format: ADME
Rattus norvegicus = species on record: Rattus norvegicus; assay: Ex vivo inhibition of DPP4 in Sprague-Dawley rat; format: functional, organism-based
[25] = Fraction unbound in rat; format: ADME
[26] = Fraction unbound in dog; format: ADME, Canis lupus familiaris
[27] = AUC in cynomolgus monkey at 1 mg/kg, po; format: ADME, organism-based, Macaca fascicularis; parameters: dose 1 mg/kg, route oral; settings: plasma
[28] = HEK293 cells that express human ERG, probe [3H]dofetilide

Sequence of hERG (KCNH2) (Q12809 whole entry): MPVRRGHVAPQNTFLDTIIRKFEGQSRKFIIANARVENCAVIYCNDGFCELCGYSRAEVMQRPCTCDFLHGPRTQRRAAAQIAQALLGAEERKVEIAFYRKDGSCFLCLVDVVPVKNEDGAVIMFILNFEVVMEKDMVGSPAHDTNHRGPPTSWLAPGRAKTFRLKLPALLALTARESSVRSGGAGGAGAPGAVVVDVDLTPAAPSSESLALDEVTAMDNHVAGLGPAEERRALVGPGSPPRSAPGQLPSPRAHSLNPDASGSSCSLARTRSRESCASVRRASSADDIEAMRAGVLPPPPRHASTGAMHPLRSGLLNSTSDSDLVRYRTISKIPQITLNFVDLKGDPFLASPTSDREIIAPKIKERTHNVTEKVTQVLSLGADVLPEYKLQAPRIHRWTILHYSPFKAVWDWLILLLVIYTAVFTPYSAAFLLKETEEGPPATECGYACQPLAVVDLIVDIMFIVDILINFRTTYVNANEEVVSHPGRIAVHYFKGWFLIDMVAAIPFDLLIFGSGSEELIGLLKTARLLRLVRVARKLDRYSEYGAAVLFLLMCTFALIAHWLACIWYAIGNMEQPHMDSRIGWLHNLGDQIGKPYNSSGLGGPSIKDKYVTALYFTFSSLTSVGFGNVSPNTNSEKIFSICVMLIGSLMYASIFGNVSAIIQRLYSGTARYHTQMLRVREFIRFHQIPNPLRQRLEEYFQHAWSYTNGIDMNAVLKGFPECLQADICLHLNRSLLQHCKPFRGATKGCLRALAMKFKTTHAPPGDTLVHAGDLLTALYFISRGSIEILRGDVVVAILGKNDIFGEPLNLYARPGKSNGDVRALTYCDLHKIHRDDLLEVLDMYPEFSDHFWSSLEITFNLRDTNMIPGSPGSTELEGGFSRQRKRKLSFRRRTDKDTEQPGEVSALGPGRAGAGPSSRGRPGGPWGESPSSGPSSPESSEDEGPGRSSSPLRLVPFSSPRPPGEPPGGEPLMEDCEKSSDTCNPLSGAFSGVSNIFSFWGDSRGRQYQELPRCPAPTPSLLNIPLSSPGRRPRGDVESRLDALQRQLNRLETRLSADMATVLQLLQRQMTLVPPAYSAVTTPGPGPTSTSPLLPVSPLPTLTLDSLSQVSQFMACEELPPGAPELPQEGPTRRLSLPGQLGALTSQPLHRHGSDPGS
Sequence of Voltage-gated inwardly rectifying potassium channel KCNH2 (Q12809 whole entry): as above
Sequence of Cytochrome P450 2D6 (P10635 whole entry): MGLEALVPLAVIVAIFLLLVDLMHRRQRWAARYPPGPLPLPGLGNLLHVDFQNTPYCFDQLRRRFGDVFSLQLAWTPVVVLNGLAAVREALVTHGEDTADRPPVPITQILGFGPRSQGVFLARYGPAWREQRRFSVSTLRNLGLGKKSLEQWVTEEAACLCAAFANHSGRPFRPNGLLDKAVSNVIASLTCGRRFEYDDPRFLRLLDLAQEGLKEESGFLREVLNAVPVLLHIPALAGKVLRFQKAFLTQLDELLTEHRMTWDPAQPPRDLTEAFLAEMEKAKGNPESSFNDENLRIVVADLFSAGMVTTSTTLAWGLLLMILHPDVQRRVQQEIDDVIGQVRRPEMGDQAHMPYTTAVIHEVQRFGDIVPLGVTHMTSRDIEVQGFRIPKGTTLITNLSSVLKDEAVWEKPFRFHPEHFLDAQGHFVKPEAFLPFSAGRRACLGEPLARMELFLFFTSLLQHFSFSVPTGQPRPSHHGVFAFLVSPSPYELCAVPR
Sequence of Dipeptidyl peptidase 8 (Q6V1X1 whole entry): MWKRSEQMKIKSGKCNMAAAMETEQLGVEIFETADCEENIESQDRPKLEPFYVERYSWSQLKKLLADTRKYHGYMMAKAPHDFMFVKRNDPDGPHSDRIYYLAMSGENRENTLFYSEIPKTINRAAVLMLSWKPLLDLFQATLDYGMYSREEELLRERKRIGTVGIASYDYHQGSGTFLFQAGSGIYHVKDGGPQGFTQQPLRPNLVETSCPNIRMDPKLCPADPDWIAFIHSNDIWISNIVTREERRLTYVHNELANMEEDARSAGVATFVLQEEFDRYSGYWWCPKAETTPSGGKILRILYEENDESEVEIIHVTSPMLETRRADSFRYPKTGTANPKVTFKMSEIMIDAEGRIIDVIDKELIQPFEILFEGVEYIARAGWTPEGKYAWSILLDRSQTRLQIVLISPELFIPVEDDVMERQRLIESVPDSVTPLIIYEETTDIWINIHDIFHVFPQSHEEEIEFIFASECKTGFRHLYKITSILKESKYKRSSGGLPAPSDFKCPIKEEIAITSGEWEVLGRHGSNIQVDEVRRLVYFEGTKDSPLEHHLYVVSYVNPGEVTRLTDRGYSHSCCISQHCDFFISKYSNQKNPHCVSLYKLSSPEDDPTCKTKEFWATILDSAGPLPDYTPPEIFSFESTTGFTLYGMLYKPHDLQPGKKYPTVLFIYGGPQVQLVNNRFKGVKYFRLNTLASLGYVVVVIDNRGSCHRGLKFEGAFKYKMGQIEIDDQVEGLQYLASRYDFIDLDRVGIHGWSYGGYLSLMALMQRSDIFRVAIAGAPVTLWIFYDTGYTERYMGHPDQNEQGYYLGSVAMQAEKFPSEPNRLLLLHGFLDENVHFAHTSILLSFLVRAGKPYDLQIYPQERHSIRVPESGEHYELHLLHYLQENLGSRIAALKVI
Sequence of Cytochrome P450 2C9 (P11712 whole entry): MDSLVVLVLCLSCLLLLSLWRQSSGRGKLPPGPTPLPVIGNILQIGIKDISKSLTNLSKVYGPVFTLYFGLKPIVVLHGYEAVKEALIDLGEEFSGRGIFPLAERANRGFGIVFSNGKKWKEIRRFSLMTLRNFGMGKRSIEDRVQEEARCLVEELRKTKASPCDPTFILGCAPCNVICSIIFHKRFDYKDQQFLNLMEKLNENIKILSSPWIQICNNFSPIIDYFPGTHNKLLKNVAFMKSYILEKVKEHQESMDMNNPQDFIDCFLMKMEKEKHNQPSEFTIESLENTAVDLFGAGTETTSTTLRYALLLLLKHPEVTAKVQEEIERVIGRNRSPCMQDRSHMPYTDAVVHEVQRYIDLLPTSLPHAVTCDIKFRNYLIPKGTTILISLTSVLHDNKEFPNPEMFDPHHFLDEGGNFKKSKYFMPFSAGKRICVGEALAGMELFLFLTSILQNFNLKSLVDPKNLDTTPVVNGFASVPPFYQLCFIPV
Sequence of Cytochrome P450 3A4 (P08684 whole entry): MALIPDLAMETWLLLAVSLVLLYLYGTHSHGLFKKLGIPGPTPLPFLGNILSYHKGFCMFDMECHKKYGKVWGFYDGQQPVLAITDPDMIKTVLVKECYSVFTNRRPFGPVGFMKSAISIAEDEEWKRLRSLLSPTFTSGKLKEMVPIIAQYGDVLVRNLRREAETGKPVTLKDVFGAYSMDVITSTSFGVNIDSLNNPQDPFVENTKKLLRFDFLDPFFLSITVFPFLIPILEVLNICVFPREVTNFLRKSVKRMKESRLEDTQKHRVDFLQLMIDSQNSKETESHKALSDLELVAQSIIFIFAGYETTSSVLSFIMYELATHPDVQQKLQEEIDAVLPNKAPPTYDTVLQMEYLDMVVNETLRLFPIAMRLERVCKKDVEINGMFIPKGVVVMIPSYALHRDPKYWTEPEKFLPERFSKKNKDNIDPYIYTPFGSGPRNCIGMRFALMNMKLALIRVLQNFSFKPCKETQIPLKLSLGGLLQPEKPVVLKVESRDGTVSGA

SMILES: O=C([C@@H]1C[C@H](N2CCN(c3ncccn3)CC2)CN1)N1C[C@@H](F)[C@H](F)C1
inhibition at 10 µM (hERG (KCNH2); hek293): -1.6%

SMILES: O=C([C@@H]1C[C@H](N2CCN(c3ncccn3)CC2)CN1)N1CC(F)C1
IC50 (Dipeptidyl peptidase 8): > 30 µM
IC50 (Dipeptidyl peptidase 2): > 30 µM

SMILES: O=C([C@@H]1C[C@H](N2CCN(c3ncccn3)CC2)CN1)N1C[C@@H](F)[C@@H](F)C1
inhibition at 10 µM (hERG (KCNH2); hek293): 7.2%
IC50 [1]: 54 µM
clearance [2]: 27 mL/min/kg
Vd [3]: 1.9 L/kg
half-life [4]: 2.3 h
bioavailability [5]: 93%
AUC (in vivo [6]): 3950 ng·h/mL
Cmax (in vivo [7]): 1820 ng/mL

SMILES: O=C([C@@H]1C[C@H](N2CCN(c3nc4cnccc4o3)CC2)CN1)N1CCC(F)(F)C1
inhibition at 10 µM (hERG (KCNH2); [28]): 8.1%

SMILES: O=C([C@@H]1C[C@H](N2CCN(c3nc4cccnc4o3)CC2)CN1)N1CCC(F)(F)C1
inhibition at 10 µM (hERG (KCNH2); [28]): 7.4%

Continued, in another order:

Papp B→A [8]: 11.2 ×10⁻⁶ cm/s
Papp A→B [9]: 18.6 ×10⁻⁶ cm/s
SMILES: O=C([C@@H]1C[C@H](N2CCN(c3noc4ccccc34)CC2)CN1)N1CCC(F)(F)C1
inhibition at 10 µM (hERG (KCNH2); [28]): 26.7%

Papp B→A [8]: 13.5 ×10⁻⁶ cm/s
Papp A→B [9]: 10.4 ×10⁻⁶ cm/s
clearance [2]: 61 mL/min/kg
Vd [3]: 1.8 L/kg
half-life [4]: 1.5 h
bioavailability [5]: 20%
AUC (in vivo [6]): 276 ng·h/mL
Cmax (in vivo [7]): 237 ng/mL
SMILES: N#Cc1cccnc1N1CCN([C@@H]2CN[C@H](C(=O)N3CCC(F)(F)C3)C2)CC1
inhibition at 10 µM (hERG (KCNH2); [28]): -7.3%
IC50 [1]: > 10 µM

fraction unbound [10]: 0.8
fraction unbound [11]: 0.8
Tmax [12]: 0.5 h
half-life [13]: 15.1 h
Cmax [14]: 517 ng/mL
clearance [15]: 3.7 mL/min/kg
Vd [16]: 0.7 L/kg
half-life [17]: 7.6 h
bioavailability [18]: 95%
AUC [19]: 7160 ng·h/mL
Cmax [20]: 1530 ng/mL
IC50 (Dipeptidyl peptidase 3): > 30 µM
IC50 (Prolyl endopeptidase): > 30 µM
IC50 (Cytochrome P450 1A2): > 30 µM
clearance [2]: 38 mL/min/kg
Vd [3]: 1.9 L/kg
half-life [4]: 2.5 h
bioavailability [5]: 109%
clearance [21]: 7.6 mL/min/kg
Vd [22]: 1 L/kg
half-life [23]: 7.6 h
bioavailability [24]: 71%
IC50 (Cytochrome P450 2C9): > 30 µM
IC50 (Cytochrome P450 2C19): > 30 µM
IC50 (Cytochrome P450 2D6): > 30 µM
IC50 (Cytochrome P450 3A4): > 30 µM
IC50 (Rattus norvegicus): 1.3 ng/mL (≈ 3.55 nM)
fraction unbound [25]: 0.8
fraction unbound [26]: 0.8
AUC [27]: 843 ng·h/mL
AUC (in vivo [6]): 2400 ng·h/mL
Cmax (in vivo [7]): 1410 ng/mL
SMILES: O=C([C@@H]1C[C@H](N2CCN(c3ncccn3)CC2)CN1)N1CCC(F)(F)C1 [GOSOGLIPTIN]
inhibition at 10 µM (hERG (KCNH2); hek293): 14.9%
IC50 [1]: 126 µM
Emax (Rattus norvegicus): 98%

Reference: ChEMBL document CHEMBL1138584, “(3,3-Difluoro-pyrrolidin-1-yl)-[(2S,4S)-(4-(4-pyrimidin-2-yl-piperazin-1-yl)-pyrrolidin-2-yl]-methanone: a potent, selective, orally active dipeptidyl peptidase IV inhibitor” (Bioorg Med Chem Lett, 2009)
